{
  "source": "patent US20030135033A1",
  "about": "“Compounds and methods for the identification and/ or validation of a target” (priority 2002, published 2003)",
  "key": {"[1]": {"system": "PTEN mRNA", "assay": "Immunoblot of phosphorylated Akt after GeneBloc transfection of PTEN negative PC-3 cells", "assay_type": "cell-based, human", "conditions": "PC-3 cells (PTEN negative), 30 nM, 48 h", "method": "More particularly, HeLa cells (380.000 cells/plate) and PC-3 cells (450.000 cells/plate) were transfected in parallel on 10 cm plates. Each cell line was treated for 48 h in duplicate samples with 30 nM of PTEN GeneBloc 53 or GBC. The cell extracts were analyzed by immunoblotting for the relative amounts of p110, PTEN and phosphorylated Akt (P*-Akt) as indicated on the right. The band which migrates just above the PTEN signal was caused by unspecific reaction of the secondary antibody. […]\nCells were washed twice with cold phosphate-buffered saline and lysed at 4° C. in lysis buffer containing 20 mM Tris (pH 7.5), 137 mM NaCl, 15% (vol/vol) glycerol, 1% (vol/vol) Nonidet P-40 (NP-40), 2 mM phenylmethylsulfonyl fluoride, […], 20 mM leupeptin, 2 mM benzamidine, 1 mM sodium vanadate, 25 mM […]-glycerol phosphate, 50 mM NaF and 10 mM NaPPi. Lysates were cleared by centrifugation at 14,000× g for 5 minutes and aliquots of the lysates were analyzed for protein expression by Western-blotting: Samples were separated by SDS-PAGE and transferred to nitrocellulose-filters (Schleicher & Schuell). […] Bound antibody was detected using anti-mouse- or anti-rabbit-conjugated horse radish peroxidase (Transduction Laboratories, BD) in TBST, washed, and developed using the SuperSignal West Dura (Pierce) or ECL (Amersham) chemoluminescence substrates. […]"}, "[2]": {"system": "3Y1 cells", "assay": "Rate of DNA synthesis by incorporation of bromodeoxyuridine", "assay_type": "cell-based, rat", "conditions": "synchronized in low serum, released by serum stimulation", "method": "3Y1 cells plated in 96-wells at 1600 cells per well were transfected in triplicate samples with GeneBloc molecules. After ca. 30 h the cells were starved in DMEM containing 10 mM HEPES (pH 7.2) under continuous GeneBloc treatment. The cells were released into the cell cycle at various time points by addition of 10% serum. Control cells were incubated with 5 μg/ml aphidicolin for 18 h. After pulse-labeling with 10 μM 5-bromo-2′-deoxyururidine (BrdU) for the last 2 h the cells were fixed and permeabilized. The relative amount of BrdU incorporated into each sample was determined by using the Cell Proliferation ELISA, BrdU (colorimetric) (Roche) according to the manufacturer's instructions. Incorporated BrdU was detected by measuring the absorbance at 405 nm and 490 nM using the Spectra Max 190 (Molecular Devices).\n(§1) 3Y1 cells were used, because these untransformed rat fibroblasts are very sensitive to transfection conditons and are prone to arrest or even undergo apoptosis. Subconfluent 3Y1 cells in 96 wells were treated with PTEN GeneBloc 48, GeneBloc 53 or GBC as a control. On day 2 the cells were synchronized in low serum. During days 3 and 4 the cells were released into the cell cycle by serum stimulation at various time points. BrdU was added for the last 2 h of incubation. Untreated cells and cells that were treated with Aphidicolin for 24 h were used as controls. RNA knock down was analyzed in parallel samples. The rate of synthesis was determined via the amount of incorporated BrdU."}, "[3]": {"system": "PTEN mRNA", "assay": "Relative PTEN RNA level by Taqman analysis", "assay_type": "cell-based, rat", "conditions": "3Y1 cells, parallel samples of BrdU experiment", "method": "The RNA of cells transfected in 96-wells was isolated and purified using the Invisorb RNA HTS 96 kit (InVitek GmbH, Berlin). Inhibition of PTEN mRNA expression was detected by real time RT-PCR (Taqman) analysis using PTEN 5′ primer […] (SEQ ID No. 47), PTEN 3′ primer […] (SEQ ID No. 48) and the Taqman probe Fam-[…]-Tamra (SEQ ID No. 34). The reaction was carried out in 50 μl and assayed on the ABI PRISM 7700 Sequence detector (Applied Biosystems) according to the manufacturer's instructions under the following conditions: 48° C. for 30 min, 95° C. for 10 min, followed by 40 cycles of 15 sec at 95° C. and 1 min at 60° C.\nas §1"}},
  "data": [
    {"substance": "ucuccuuTTGTTTCTGcuaacga (UCUCCUUTTGTTTCTGCUAACGA; chemistry not fully specified) [PTEN 53, third generation antisense oligonucleotide (GeneBloc) against PTEN]", "values": [
      {"measurement": "phosphorylated Akt (P*-Akt) (immunoblot)", "setting": "[1]", "result": "generate phosphorylated Akt irrespective"},
      {"measurement": "phosphorylated Akt (P*-Akt) (immunoblot)", "setting": "[1]; listed as PTEN GeneBloc 53", "result": "had no effect"},
      {"measurement": "rate of DNA synthesis (incorporated BrdU)", "setting": "[2]", "result": "strong increase in DNA synthesis after 18 h"},
      {"measurement": "PTEN mRNA level (PTEN/actin RNA)", "setting": "[3]", "result": "remained downregulated"}
    ]}
  ]
}
